{"source": "patent US20080293721A1", "about": "“ARYLTHIOACETAMIDE CARBOXYLATE DERIVATIVES AS FKBP INHIBITORS FOR THE TREATMENT OF NEUROLOGICAL DISEASES” (Burnham Institute for Medical Research, priority 2007, published 2008)", "key": {"[1]": {"tested_on": "primary rat cortical neurons", "assay": "neurite outgrow with primary rat cortical neurons (FIGS. 4, 5; Sholl analysis)", "assay_type": "cell-based", "conditions": "FIG. 4", "source_text": "FIGS. 4 and 5 show the effect of FKBP12 ligands on neurite outgrow with primary rat cortical neurons."}, "FKBP12": {"biological_target": "FKBP12 (Homo sapiens, UniProt P62942)", "sequence (P62942 whole entry, species assumed)": "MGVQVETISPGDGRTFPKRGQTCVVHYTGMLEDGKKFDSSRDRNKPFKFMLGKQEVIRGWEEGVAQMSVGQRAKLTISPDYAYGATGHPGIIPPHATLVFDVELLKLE", "assay": "secondary assays with isothermal titration calorimetry and 2D NMR (FIGS. 2, 3)", "assay_type": "binding", "source_text": "The ligand concentration chart refers to the compound having the formula VIII (i.e., p-toluoylthioacetylmorpholine) used as the ligand."}}}
{"smiles": "CC(C)c1ccc(SCC(=O)N2CCOCC2C(=O)OCCCc2cccnc2)cc1", "note": "(centres unmarked) [Compound VII, 3-(pyridine-3-yl)propyl 4-(2-(4-isopropylphenylthio)acetyl)morpholine-3-carboxylate]", "values": [{"measurement": "effect on neurite outgrow", "setting": "[1]", "value": "particularly substantial"}]}
{"smiles": "Cc1ccc(SCC(=O)N2CCOCC2)cc1", "note": "[VIII]", "values": [{"measurement": "Kd", "setting": "FKBP12", "value": 4, "unit": "µM"}]}
